Experiments:
Experiment in all cases: relative IC50 (inflection point of fitted viability curve, relative to fitted max inhibition); higher = less sensitive
Conditions in all cases: 72 h
IMC-1 (IL-2 20 ng/mL) = test system: IMC-1 (IL-2 20 ng/mL)
Procedure: (§1)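 Drug sensitivity and resistance testing: 5 concentrations over a 10,000-fold range, 72 h at 37 °C, viability by CellTiter-Glo normalised to DMSO and benzethonium chloride controls. IC50 is the inflection point of a logistic fit (min fixed at 0, max fitted), so it is relative to the fitted maximal inhibition. Kept only where fitted max inhibition is at least 50%.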

NK-YS (IL-2 2.5 ng/mL) = test system: NK-YS (IL-2 2.5 ng/mL)
Procedure: as §1

KHYG-1 (IL-2 2.5 ng/mL) = test system: KHYG-1 (IL-2 2.5 ng/mL)
Procedure: as §1

KAI3 (IL-2 2.5 ng/mL) = test system: KAI3 (IL-2 2.5 ng/mL)
Procedure: as §1

NKL (IL-2 2.5 ng/mL) = test system: NKL (IL-2 2.5 ng/mL)
Procedure: as §1

SNK-6 (IL-2 2.5 ng/mL) = test system: SNK-6 (IL-2 2.5 ng/mL)
Procedure: as §1

NK-92 (IL-2 2.5 ng/mL) = test system: NK-92 (IL-2 2.5 ng/mL)
Procedure: as §1

DERL-7 (IL-2 2.5 ng/mL) = test system: DERL-7 (IL-2 2.5 ng/mL)
Procedure: as §1

YT (IL-2 2.5 ng/mL) = test system: YT (IL-2 2.5 ng/mL)
Procedure: as §1

[1] = test system: normal primary NK cells, pool 2 (3 donors) (IL-2 2.5 ng/mL)
Procedure: as §1

| Structure (SMILES) | relative IC50 (IMC-1 (IL-2 20 ng/mL)) [µM] | relative IC50 (KHYG-1 (IL-2 2.5 ng/mL)) [µM] | relative IC50 (KAI3 (IL-2 2.5 ng/mL)) [µM] | relative IC50 (NKL (IL-2 2.5 ng/mL)) [µM] | relative IC50 (NK-92 (IL-2 2.5 ng/mL)) [µM] | relative IC50 (DERL-7 (IL-2 2.5 ng/mL)) [µM] | further results |
| --- | --- | --- | --- | --- | --- | --- | --- |
| Cn1ncnc1[C@H]1c2n[nH]c(=O)c3cc(F)cc(c23)N[C@@H]1c1ccc(F)cc1 [Talazoparib] | 0.164 | 0.0938 | 0.0281 | 0.0023 | 0.0598 | – | relative IC50 (NK-YS (IL-2 2.5 ng/mL)): 0.0222 µM; relative IC50 (SNK-6 (IL-2 2.5 ng/mL)): 0.134 µM |
| CCC(C)(C)C(=O)O[C@H]1C[C@@H](C)C=C2C=C[C@H](C)[C@H](CC[C@@H]3C[C@@H](O)CC(=O)O3)[C@H]21 [Simvastatin] | – | – | – | 2.45 | – | – | relative IC50 (NK-YS (IL-2 2.5 ng/mL)): 2.38 µM |
| CN1CCN(c2nc(C3=C(c4c[nH]c5ccccc45)C(=O)NC3=O)c3ccccc3n2)CC1 [Sotrastaurin] | – | 1.8 | 1.62 | 0.499 | 1.69 | 1.08 | – |
| O=C(NC[C@H](O)CO)c1ccncc1Nc1ccc(I)cc1F [Pimasertib] | – | 0.083 | – | 0.049 | – | – | relative IC50 (SNK-6 (IL-2 2.5 ng/mL)): > 10 µM |
| NC1(c2ccc(-c3nc4ccn5c(=O)[nH]nc5c4cc3-c3ccccc3)cc2)CCC1 [MK-2206] | – | – | – | – | – | 0.103 | – |
| C[C@H](Nc1ncnc2nc[nH]c12)c1cc2cccc(Cl)c2c(=O)n1-c1ccccc1 [Duvelisib] | – | – | – | – | – | 0.0445 | – |
| CC(C)(C)NC(=O)[C@H]1CC[C@H]2[C@@H]3CC[C@H]4NC(=O)C=C[C@]4(C)[C@H]3CC[C@]12C [Finasteride] | – | – | – | – | – | – | relative IC50 (SNK-6 (IL-2 2.5 ng/mL)): > 10 µM |
| Nc1nc(OCc2cc(Br)cs2)c2[nH]cnc2n1 [Lomeguatrib] | – | – | – | 1.9 | – | – | – |
| O=C(NOCCO)c1ccc2cncn2c1Nc1ccc(I)cc1F [GDC-0623] | > 2.5 | 0.0256 | – | 0.0221 | > 2.5 | – | – |
| O=C(O)c1ccc(-c2c[nH]c3ncc(-c4ccccc4)cc23)cc1C1CCCC1 | 3.04 | 1.49 | 0.307 | 1.4 | 2.33 | 2.82 | relative IC50 (NK-YS (IL-2 2.5 ng/mL)): 1.46 µM |
| COc1cc(Nc2ncc(F)c(Nc3ccc4c(n3)N(COP(=O)(O)O)C(=O)C(C)(C)O4)n2)cc(OC)c1OC [Fostamatinib] | > 2.5 | – | – | – | – | – | – |
| CO[C@@H](C(=O)N1Cc2[nH]nc(NC(=O)c3ccc(N4CCN(C)CC4)cc3)c2C1)c1ccccc1 [Danusertib] | 0.312 | 0.493 | 0.46 | 1.38 | 0.337 | 0.175 | relative IC50 (NK-YS (IL-2 2.5 ng/mL)): 0.204 µM; relative IC50 (SNK-6 (IL-2 2.5 ng/mL)): 0.413 µM |
| C=C(c1ccc(C(=O)O)cc1)c1cc2c(cc1C)C(C)(C)CCC2(C)C [Bexarotene] | – | – | – | 0.208 | – | – | – |
| N#Cc1ccc2[nH]c(O)c(-c3ccc(CN4CCOCC4)cn3)c2c1 [AZD-1080] | 3.18 | – | – | – | > 10 | 3.42 | relative IC50 (SNK-6 (IL-2 2.5 ng/mL)): > 10 µM |
| CC(C)NC[C@@H](C(=O)N1CCN(c2ncnc3c2[C@H](C)C[C@H]3O)CC1)c1ccc(Cl)cc1 [GDC-0068] | – | – | – | – | – | 1.03 | – |
| O=C(Nc1cc(Cl)cc2c1[nH]c1cnccc12)c1cccnc1 [PS-1145] | – | – | 1.65 | – | – | – | – |
| CCN(CC)CCNC(=O)c1c(C)[nH]c(/C=C2\C(=O)Nc3ccc(F)cc32)c1C [Sunitinib] | > 1 | > 1 | – | > 1 | > 1 | – | – |
| CC(C)Cn1cnc2c(N)nc3ccccc3c21 [Imiquimod] | – | – | – | – | – | – | relative IC50 (SNK-6 (IL-2 2.5 ng/mL)): 0.0896 µM |
| CCn1c(C(=O)N(C2CC2)C2CC2)cc2c3c(ncn3C)c(Nc3cc(C)n(C)n3)nc21 | – | 1.82 | 0.18 | 0.797 | 1.98 | 1.63 | – |
| O=c1sn(-c2cccc3ccccc23)c(=O)n1Cc1ccccc1 [Tideglusib] | – | – | – | – | > 3 | – | – |
| NC(=O)NO [Hydroxyurea] | – | – | 2.63 | – | – | – | – |
| CC(C)c1c(C(=O)Nc2ccccc2)c(-c2ccccc2)c(-c2ccc(F)cc2)n1CC[C@@H](O)C[C@@H](O)CC(=O)O [Atorvastatin] | 1.52 | 2.38 | 2.76 | 0.332 | 3.67 | 2.18 | relative IC50 (NK-YS (IL-2 2.5 ng/mL)): 0.579 µM; relative IC50 (YT (IL-2 2.5 ng/mL)): 1.63 µM |
| COc1ccc2c(OCc3nnc4ccc(-c5ccccc5)nn34)ccnc2c1 [AMG-208] | – | – | – | – | – | > 2.5 | – |
| N#CC1(c2ccc(NC(=O)c3cccnc3NCc3ccncc3)cc2)CCCC1 [Apatinib] | – | – | – | > 10 | 1.71 | – | relative IC50 [1]: > 10 µM |

From the supplement of paper PMC5908809
